According to patent US20180066005A1, “TRANS-RESVERATROL POLYSACCHARIDE, METHOD OF PRODUCING THE SAME, AND COMPOSITION COMPRISING THE SAME” (FAITH CO., LTD., priority 2013, published 2018):

Experiments:
3T3 mouse fibroblasts = experiment: Rescue activity from cell death induced by hydrogen peroxide; type: cell-based; settings: 10 μM for 3 hours, then hydrogen peroxide 15 μM, culture for 12 hours (FIG. 10)
Method: Subsequently, the cultured cells were fixed with 4% paraformaldehyde and stained with Hoechst. Cells in which aggregation in the cell nucleus was observed were determined to be cell death, and the percentage of cell death (vertical axis in the graph) was calculated.
An experiment was conducted to confirm the trans-resveratrol polysaccharide's rescue activity from cell death. RSV, 4M-RSV, and 3P-RSV were each added to a culture medium of 3T3 mouse fibroblasts so that the final concentration was 10 μM, and the fibroblasts were cultured with 5% carbon dioxide at 37° C. for 3 hours. Subsequently, hydrogen peroxide was added to the culture medium so that the final concentration was 15 μM, thereby inducing cell death.
After culture for 12 hours, cell death was determined in the same manner as in Example 1, and the percentage of cell death was calculated.

[1] = tested on: normal human three-dimensional epithelial tissue model MelanoDerm; experiment: Whitening effect: reduction in black areas in epithelial tissue models (MelanoDerm); type: cell-based
Method: An experiment was conducted to confirm the effect of suppressing the expression of NFκB, which is a transcription factor that induces inflammation. Epithelial tissue models were produced using a normal human three-dimensional epithelial tissue model production kit MelanoDerm (MEL-300; Kurabo). RSV was added to the culture media so that the final concentration was 0 μM (Ctrl), 30 μM, 50 μM, and 100 μM, and the tissue models were cultured according to the manual of the kit. RNA in the skin tissue models was collected three weeks after the addition of RSV, and subjected to quantitative PCR analysis to measure the expression level of NFκB. […] Epithelial tissue models were produced using the above kit. RSV was added to the culture media so that the final concentration was 0 μM (Ctrl), 30 μM, 50 μM, and 100 μM, and the tissue models were cultured according to the manual of the kit. Photographic images of the epithelial tissue models were taken three weeks after the addition of RSV. The degree of reduction in black areas due to the addition of RSV was calculated using ImageJ image-analysis software, and the results were graphed. […] Epithelial tissue models were produced in the same manner as in Example 5. RSV, 4 M-RSV, and 3P-RSV were each added so that the final concentration was 50 μM, and the skin tissue models were observed.

NFκB = experiment: Suppression of NFκB expression in epithelial tissue models (quantitative PCR); type: cell-based, human; settings: 30 μM, 50 μM and 100 μM, three weeks after addition (FIG. 11)
Method: An experiment was conducted to confirm the effect of suppressing the expression of NFκB, which is a transcription factor that induces inflammation. Epithelial tissue models were produced using a normal human three-dimensional epithelial tissue model production kit MelanoDerm (MEL-300; Kurabo). RSV was added to the culture media so that the final concentration was 0 μM (Ctrl), 30 μM, 50 μM, and 100 μM, and the tissue models were cultured according to the manual of the kit. RNA in the skin tissue models was collected three weeks after the addition of RSV, and subjected to quantitative PCR analysis to measure the expression level of NFκB.

[2] = Solubility in water at room temperature; type: physicochemical; settings: for solubility in distilled water: allowed to stand at room temperature, turbid or transparent tube (FIG. 7)
Method: FIG. 7 is a photographic image showing trans-resveratrol-3-O-β-D-monoglucoside contained in the fraction showing a single peak detected in FIG. 1 (A), and trans-resveratrol-3-O-β-D-diglucoside contained in the fraction (a) in FIG. 1 (B), after they were dissolved in distilled water and allowed to stand at room temperature.

SMILES: OCC1OC(Oc2cc(O)cc(/C=C/c3ccc(OC4OC(CO)C(OC5OC(CO)C(O)C(O)C5O)C(O)C4O)cc3)c2)C(O)C(O)C1O [4M-RSV, trans-resveratrol-O-β-D-3-monoglucoside-4′-diglycoside]
- rescue activity from cell death induced by hydrogen peroxide (percentage of cell death) (3T3 mouse fibroblasts): cell death almost equal to that of the case in which hydrogen peroxide was not added (Ctrl)
- degree of reduction in black areas per molecular unit of RSV (whitening effect) ([1]; 50 μM (FIG. 13)): significantly excellent whitening effect

SMILES: Oc1ccc(/C=C/c2cc(O)cc(O)c2)cc1 [RSV, Trans-resveratrol]
- expression level of NFκB (NFκB): suppressed the expression level of NFκB in the epithelial tissue models in a concentration-dependent manner
- reduction in black areas (whitening effect) ([1]; 30 μM, 50 μM and 100 μM, three weeks after addition, ImageJ (FIG. 12)): reduced black areas in the epithelial tissue models in a concentration-dependent manner

SMILES: OCC1OC(OC2C(CO)OC(Oc3cc(O)cc(/C=C/c4ccc(O)cc4)c3)C(O)C2O)C(O)C(O)C1O [trans-resveratrol-3-O-β-D-diglucoside, trans-Resveratrol-3-O-β-D-diglucoside]
- solubility in distilled water [2]: easily dissolved in distilled water at room temperature
- water solubility at ordinary temperature ([2]; ordinary temperature, concluded from ethyl acetate/water partition and HPLC fractions): could acquire water solubility at ordinary temperature

SMILES: OC[C@H]1O[C@@H](Oc2cc(O)cc(/C=C/c3ccc(O)cc3)c2)[C@H](O)[C@@H](O)[C@@H]1O [trans-resveratrol-3-O-β-D-monoglucoside, trans-Resveratrol-3-O-β-D-glucopyranoside, reference compound]
- solubility in distilled water [2]: not dissolved in distilled water at room temperature
